This note sets out measurements from patent US12448395B2 (BRISTOL-MYERS SQUIBB COMPANY, priority 2019, dated 2025).

What all share (assay type): cell-based
One test deals with T1, human TLR9 (Homo sapiens, UniProt Q9NR96).
T1 sequence (Q9NR96 26-1032): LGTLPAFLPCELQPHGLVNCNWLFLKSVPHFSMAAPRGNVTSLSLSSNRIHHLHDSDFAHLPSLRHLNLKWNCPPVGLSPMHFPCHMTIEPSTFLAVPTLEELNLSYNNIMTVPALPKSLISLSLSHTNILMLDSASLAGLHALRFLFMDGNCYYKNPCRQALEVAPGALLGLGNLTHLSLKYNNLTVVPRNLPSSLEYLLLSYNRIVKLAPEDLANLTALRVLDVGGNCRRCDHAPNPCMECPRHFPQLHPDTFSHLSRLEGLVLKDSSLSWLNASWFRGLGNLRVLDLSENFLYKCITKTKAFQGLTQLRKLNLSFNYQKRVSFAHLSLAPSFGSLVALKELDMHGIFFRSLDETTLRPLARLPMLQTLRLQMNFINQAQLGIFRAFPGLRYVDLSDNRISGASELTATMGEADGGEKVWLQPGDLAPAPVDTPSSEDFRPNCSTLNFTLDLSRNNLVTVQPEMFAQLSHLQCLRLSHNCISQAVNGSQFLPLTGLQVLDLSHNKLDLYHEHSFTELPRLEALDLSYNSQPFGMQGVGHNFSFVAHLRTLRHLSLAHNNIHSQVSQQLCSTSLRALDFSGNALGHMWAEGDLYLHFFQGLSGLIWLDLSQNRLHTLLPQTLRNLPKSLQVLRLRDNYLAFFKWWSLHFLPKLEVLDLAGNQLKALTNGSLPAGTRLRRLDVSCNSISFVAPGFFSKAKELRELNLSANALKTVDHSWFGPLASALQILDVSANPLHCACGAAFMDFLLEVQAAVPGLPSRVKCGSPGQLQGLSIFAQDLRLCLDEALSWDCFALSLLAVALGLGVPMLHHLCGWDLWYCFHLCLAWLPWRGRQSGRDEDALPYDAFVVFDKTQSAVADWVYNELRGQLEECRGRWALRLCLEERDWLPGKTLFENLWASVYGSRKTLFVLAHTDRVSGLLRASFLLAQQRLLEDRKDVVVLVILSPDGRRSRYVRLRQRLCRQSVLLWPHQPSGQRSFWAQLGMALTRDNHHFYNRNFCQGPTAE
As to the kind of experiment: TLR9 inhibition reporter assay (HEK-Blue SEAP, ODN2006 stimulation). To be noted: HEK-Blue cells overexpressing human TLR9, ODN2006 5 nM. The procedure, abridged: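 Compound treatment: 30 min, RT, 0.05 nM–50 μM final. Agonist: TLR7 gardiquimod 7.5 μM; TLR8 R848 15.9 μM; TLR9 ODN2006 5 nM. Incubation 22 h, 37 °C, 5% CO2. Readout SEAP, HEK-Blue Detection.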

The next test addresses T2, human TLR7 (Homo sapiens, UniProt Q9NYK1).
T2 sequence (Q9NYK1 27-1049): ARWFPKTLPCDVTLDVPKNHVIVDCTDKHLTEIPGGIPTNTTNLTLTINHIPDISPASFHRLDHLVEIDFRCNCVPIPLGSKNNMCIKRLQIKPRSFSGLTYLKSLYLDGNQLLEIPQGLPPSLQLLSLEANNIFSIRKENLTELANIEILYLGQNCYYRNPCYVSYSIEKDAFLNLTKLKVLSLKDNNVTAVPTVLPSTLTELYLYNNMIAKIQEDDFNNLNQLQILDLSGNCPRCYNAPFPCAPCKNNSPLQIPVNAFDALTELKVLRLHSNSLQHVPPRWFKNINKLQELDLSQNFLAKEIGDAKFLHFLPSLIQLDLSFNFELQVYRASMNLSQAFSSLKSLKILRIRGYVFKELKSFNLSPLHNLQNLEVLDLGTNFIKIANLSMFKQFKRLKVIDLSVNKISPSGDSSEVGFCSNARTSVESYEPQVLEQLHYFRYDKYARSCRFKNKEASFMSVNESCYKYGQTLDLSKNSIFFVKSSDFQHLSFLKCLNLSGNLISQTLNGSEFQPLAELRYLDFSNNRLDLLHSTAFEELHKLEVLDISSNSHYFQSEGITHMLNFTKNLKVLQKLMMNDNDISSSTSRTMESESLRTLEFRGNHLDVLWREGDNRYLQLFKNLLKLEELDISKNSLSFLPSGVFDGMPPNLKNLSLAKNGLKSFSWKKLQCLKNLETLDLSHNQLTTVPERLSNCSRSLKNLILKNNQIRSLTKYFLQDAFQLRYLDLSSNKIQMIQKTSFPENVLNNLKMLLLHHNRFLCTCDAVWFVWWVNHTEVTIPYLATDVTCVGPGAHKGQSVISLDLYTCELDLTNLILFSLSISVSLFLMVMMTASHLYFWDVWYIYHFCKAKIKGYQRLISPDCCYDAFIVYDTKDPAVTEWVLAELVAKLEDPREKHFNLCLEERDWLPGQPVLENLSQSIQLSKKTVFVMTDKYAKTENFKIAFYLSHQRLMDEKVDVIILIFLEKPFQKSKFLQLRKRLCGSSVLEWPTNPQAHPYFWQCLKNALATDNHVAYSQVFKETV
As to the kind of experiment: TLR7 inhibition reporter assay (HEK-Blue SEAP, gardiquimod stimulation). To be noted: HEK-Blue cells overexpressing human TLR7, gardiquimod 7.5 μM. The protocol:
(§1) TLR7/8/9 Inhibition Reporter Assays
(§2) HEK-Blue™-cells (Invivogen) overexpressing human TLR7, TLR8 or TLR9 receptors were used for screening inhibitors of these receptors using an inducible SEAP (secreted embryonic alkaline phosphatase) reporter gene under the control of the IFN-β minimal promoter fused to five NF-κB and AP-1-binding sites. Briefly, cells are seeded into Greiner 384 well plates (15000 cells per well for TLR7, 20,000 for TLR8 and 25,000 for TLR9) and then treated with test compounds in DMSO to yield a final dose response concentration range of 0.05 nM-50 μM. After a 30 minute compound pre-treatment at room temperature, the cells are then stimulated with a TLR7 ligand (gardiquimod at a final concentration of 7.5 μM), TLR8 ligand (R848 at a final concentration of 15.9 μM) or TLR9 ligand (ODN2006 at a final concentration of 5 nM) to activate NF-κB and AP-1 which induce the production of SEAP. After a 22 hour incubation at 37° C., 5% CO2, SEAP levels are determined with the addition of HEK-Blue™ Detection reagent (Invivogen), a cell culture medium that allows for detection of SEAP, according to manufacturer's specifications. The percent inhibition is determined as the % reduction in the HEK-Blue signal present in wells treated with agonist plus DMSO alone compared to wells treated with a known inhibitor.
Background: In a reporter assay the amount or activity of a reporter protein is the signal.

For another test, the target named is T3, human TLR8 (Homo sapiens, UniProt Q9NR97).
T3 sequence (Q9NR97 27-1041): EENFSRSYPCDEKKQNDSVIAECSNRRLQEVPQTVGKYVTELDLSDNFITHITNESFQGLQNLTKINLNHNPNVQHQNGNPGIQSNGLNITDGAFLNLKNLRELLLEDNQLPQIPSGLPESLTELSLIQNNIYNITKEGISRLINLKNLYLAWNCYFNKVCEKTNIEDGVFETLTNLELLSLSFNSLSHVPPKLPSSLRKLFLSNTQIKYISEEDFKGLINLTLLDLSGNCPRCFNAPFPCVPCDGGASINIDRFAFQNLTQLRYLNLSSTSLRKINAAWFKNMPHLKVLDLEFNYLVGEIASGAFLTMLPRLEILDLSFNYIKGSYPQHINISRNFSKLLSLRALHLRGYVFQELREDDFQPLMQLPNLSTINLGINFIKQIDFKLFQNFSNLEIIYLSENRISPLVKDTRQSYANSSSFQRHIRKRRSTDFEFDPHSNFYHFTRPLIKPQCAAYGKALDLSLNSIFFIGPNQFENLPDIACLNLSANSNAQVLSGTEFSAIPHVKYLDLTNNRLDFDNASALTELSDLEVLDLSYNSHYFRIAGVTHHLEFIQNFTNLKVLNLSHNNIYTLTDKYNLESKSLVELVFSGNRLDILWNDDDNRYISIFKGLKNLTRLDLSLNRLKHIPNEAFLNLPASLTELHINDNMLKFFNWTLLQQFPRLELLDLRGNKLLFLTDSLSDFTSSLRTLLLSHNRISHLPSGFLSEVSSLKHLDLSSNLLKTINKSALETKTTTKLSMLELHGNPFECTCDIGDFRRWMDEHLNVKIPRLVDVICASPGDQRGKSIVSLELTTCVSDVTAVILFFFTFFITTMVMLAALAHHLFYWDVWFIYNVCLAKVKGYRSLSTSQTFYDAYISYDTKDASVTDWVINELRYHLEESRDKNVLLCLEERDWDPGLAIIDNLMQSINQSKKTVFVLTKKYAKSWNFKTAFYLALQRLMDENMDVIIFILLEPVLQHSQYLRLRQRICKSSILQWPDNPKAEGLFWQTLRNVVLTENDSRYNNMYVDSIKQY
As to the kind of experiment: TLR8 inhibition reporter assay (HEK-Blue SEAP, R848 stimulation). Conditions: HEK-Blue cells overexpressing human TLR8, R848 15.9 μM. The protocol:
as §1, §2

Structures can show the parent of a compound that is named as a salt.

What is called IC50 is the concentration at which inhibition is half-maximal. Low values mean higher potency, high ones lower potency. As for `Cc1c(-c2[nH]c3sc(C4CCC(NCC(=O)N5CCOCC5)CC4)nc3c2C(C)C)cn2ncnc2c1C` (single isomer, unassigned) [Example 206, 2-((4-(5-(7,8-dimethyl-[1,2,4]triazolo[1,5-a]pyridin-6-yl)-6-isopropyl-4H-pyrrolo[3,2-d]thiazol-2-yl)cyclohexyl)amino)-1-morpholinoethan-1-one], the IC50 against human TLR9 worked out at 12600 nM; at human TLR7, 2.27 nM; against human TLR8, 0.64 nM.
For `Cc1c(-c2[nH]c3sc(C4CCC(NCC(=O)N5CCOCC5)CC4)nc3c2C(C)C)cn2ncnc2c1C` (single isomer, unassigned) [Example 207, 2-((4-(5-(7,8-dimethyl-[1,2,4]triazolo[1,5-a]pyridin-6-yl)-6-isopropyl-4H-pyrrolo[3,2-d]thiazol-2-yl)cyclohexyl)amino)-1-morpholinoethan-1-one], in that order: 20700 nM, 2.92 nM and 0.31 nM.
For `Cc1c(-c2[nH]c3sc(N4CCNC[C@H]4C)nc3c2C(C)C)cn2ncnc2c1C` [Example 308, (R)-5-(7,8-dimethyl-[1,2,4]triazolo[1,5-a]pyridin-6-yl)-6-isopropyl-2-(2-methylpiperazin-1-yl)-4H-pyrrolo[3,2-d]thiazole, HCl], in that order: 15800 nM, 0.18 nM and 0.09 nM.
